Data reported in the NIST ThermoML archive (doi:10.1021/acs.jced.7b00452).

Test: mn = molality of the nth substance listed, in mol/kg
Settings: 101.3 kPa, Liquid; for speed of sound: Single path-length method; for mass density: Vibrating tube method

CCN(CC)CCNC(=O)c1ccc(N)cc1.Cl [procainamide hydrochloride] + O
Settings | mass density, 298.15 K [kg/m3] | mass density, 308.15 K [kg/m3] | mass density, 318.15 K [kg/m3] | speed of sound, 298.15 K [m/s] | speed of sound, 308.15 K [m/s] | speed of sound, 318.15 K [m/s]
m1 = 0.0292 | 998.359 | 995.314 | 991.46 | 1501.6 | 1524.2 | 1538.9
m1 = 0.0328 | 998.521 | 995.471 | 991.615 | 1502.1 | 1524.6 | 1539.2
m1 = 0.043 | 998.975 | 995.914 | 992.05 | 1503.6 | 1525.8 | 1540.3
m1 = 0.0551 | 999.51 | 996.435 | 992.563 | 1505.4 | 1527.1 | 1541.3
m1 = 0.0689 | 1000.14 | 997.048 | 993.168 | 1507.5 | 1528.6 | 1542.7
m1 = 0.076 | 1000.45 | 997.346 | 993.461 | 1508.5 | 1529.5 | 1543.3
m1 = 0.0804 | 1000.66 | 997.55 | 993.641 | 1509.1 | 1530 | 1543.7
m1 = 0.0938 | 1001.27 | 998.14 | 994.212 | 1511.1 | 1531.7 | 1544.9
m1 = 0.1119 | 1002.05 | 998.919 | 994.982 | 1513.8 | 1533.8 | 1546.4
m1 = 0.1194 | 1002.38 | 999.225 | 995.305 | 1514.9 | 1534.8 | 1547.1
m1 = 0.1306 | 1002.87 | 999.706 | 995.779 | 1516.6 | 1536.1 | 1548
m1 = 0.1402 | 1003.3 | 1000.12 | 996.189 | 1517.9 | 1537.3 | 1548.9
m1 = 0.1601 | 1004.18 | 1000.98 | 997.035 | 1520.9 | 1539.7 | 1550.6
m1 = 0.1715 | 1004.66 | 1001.46 | 997.488 | 1522.6 | 1541.1 | 1551.6
